From patent publication US10550111B2, “Pyrimidine urea compound containing isoxazolines and use thereof” (SHENYANG SINOCHEM AGROCHEMICALS R&D CO., LTD, priority 2014, dated 2020)

Experiments:
Type in all cases: in vivo
Zinnia elegans Jacq. = experiment: Bioassay of herbicidal activity in greenhouse (further screening)
Protocol: (§1) Determination of herbicidal activity of compounds of the present invention against weeds was carried out by the following procedures:
(§2) Seeds of monocotyledonous and dicotyledonous weeds were sown in nutrition soil in paper pot (7 cm diameter), covered with soil in 1 cm and grown in the greenhouse under good growth conditions (temperature, atmospheric humidity, water supply). The compounds of the present invention as emulsifiable concentrate, were applied in pre-emergence and post-emergence treatment by track sprayer (Engineer Research Ltd., pressure 1.95 kg/cm^2, volume 500 L/hm^2, track speed 1.48 km/h). Pre-emergence treatment was conducted after seeding 24 hours and post-emergence treatment was done when the respective weeds reached predetermined leaf stage (grass weed 2- to 3-leaf stage, broad-leaf weed 2- to 4-leaf stage), the state of growth of the respective weeds were visually observed to determine the growth inhibition rate (%) in accordance with the following evaluation standard.
(§3) Growth inhibition rate (%): 0=no discernible action: 100=all weeds dead or not emerged.

[1] = test system: Echinochloa crus-galli (L.) Beauv.; experiment: as above
Protocol: as §1, §2, §3

[2] = test system: Abutilon theophrasti Medic.; experiment: as above
Protocol: as §1, §2, §3

[3] = test system: Setaria glauca (L.) Beauv.; experiment: as above
Protocol: as §1, §2, §3

[4] = test system: broad-leaf weeds and grass weeds; experiment: General screening of herbicidal activity in greenhouse; settings: 1000 g a.i./hm^2;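 also: 0 means no visible effect and 100 means all weeds dead or not emerged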
Protocol: as §1, §2, §3

| Compound | Growth inhibition rate, Post-emergence treatment, Zinnia elegans Jacq. (Zinnia elegans Jacq.; dose 37.5 g a.i./hm^2) [%] | Growth inhibition rate, Post-emergence treatment, Zinnia elegans Jacq. (Zinnia elegans Jacq.; dose 150 g a.i./hm^2) [%] | Growth inhibition rate, Post-emergence treatment, Zinnia elegans Jacq. (Zinnia elegans Jacq.; dose 600 g a.i./hm^2) [%] | Growth inhibition rate, Pre-emergence treatment, Zinnia elegans Jacq. (Zinnia elegans Jacq.; dose 37.5 g a.i./hm^2) [%] | Growth inhibition rate, Pre-emergence treatment, Zinnia elegans Jacq. (Zinnia elegans Jacq.; dose 150 g a.i./hm^2) [%] | Growth inhibition rate, Pre-emergence treatment, Zinnia elegans Jacq. (Zinnia elegans Jacq.; dose 600 g a.i./hm^2) [%] | Growth inhibition rate, Post-emergence treatment, Echinochloa crus-galli (L.) Beauv. ([1]; dose 37.5 g a.i./hm^2) [%] | Growth inhibition rate, Post-emergence treatment, Echinochloa crus-galli (L.) Beauv. ([1]; dose 150 g a.i./hm^2) [%] | Growth inhibition rate, Post-emergence treatment, Echinochloa crus-galli (L.) Beauv. ([1]; dose 600 g a.i./hm^2) [%] | Growth inhibition rate, Pre-emergence treatment, Echinochloa crus-galli (L.) Beauv. ([1]; dose 37.5 g a.i./hm^2) [%] | Growth inhibition rate, Pre-emergence treatment, Echinochloa crus-galli (L.) Beauv. ([1]; dose 150 g a.i./hm^2) [%] | Growth inhibition rate, Pre-emergence treatment, Echinochloa crus-galli (L.) Beauv. ([1]; dose 600 g a.i./hm^2) [%] | Growth inhibition rate, Post-emergence treatment, Abutilon theophrasti Medic. ([2]; dose 37.5 g a.i./hm^2) [%] | Growth inhibition rate, Post-emergence treatment, Abutilon theophrasti Medic. ([2]; dose 150 g a.i./hm^2) [%] | Growth inhibition rate, Post-emergence treatment, Abutilon theophrasti Medic. ([2]; dose 600 g a.i./hm^2) [%] | Growth inhibition rate, Pre-emergence treatment, Abutilon theophrasti Medic. ([2]; dose 37.5 g a.i./hm^2) [%] | Growth inhibition rate, Pre-emergence treatment, Abutilon theophrasti Medic. ([2]; dose 150 g a.i./hm^2) [%] | Growth inhibition rate, Pre-emergence treatment, Abutilon theophrasti Medic. ([2]; dose 600 g a.i./hm^2) [%] | Growth inhibition rate, Post-emergence treatment, Setaria glauca (L.) Beauv. ([3]; dose 37.5 g a.i./hm^2) [%] | Growth inhibition rate, Post-emergence treatment, Setaria glauca (L.) Beauv. ([3]; dose 150 g a.i./hm^2) [%] | other results |
| --- | --- | --- | --- | --- | --- | --- | --- | --- | --- | --- | --- | --- | --- | --- | --- | --- | --- | --- | --- | --- | --- |
| CCOC(=O)C1(C)CC(c2cc(-n3c(=O)cc(C(F)(F)F)n(C)c3=O)ccc2Cl)=NO1 (stereo not drawn) [Compound 284] | 100 | 100 | 100 | 0 | 10 | 35 | 70 | 80 | 100 | 0 | 10 | 20 | 95 | 100 | 100 | 0 | 50 | 65 | 75 | 90 | Growth inhibition rate, Post-emergence treatment, Setaria glauca (L.) Beauv. ([3]; dose 600 g a.i./hm^2): 100%; Growth inhibition rate, Pre-emergence treatment, Setaria glauca (L.) Beauv. ([3]; dose 37.5 g a.i./hm^2): 0%; Growth inhibition rate, Pre-emergence treatment, Setaria glauca (L.) Beauv. ([3]; dose 150 g a.i./hm^2): 10%; Growth inhibition rate, Pre-emergence treatment, Setaria glauca (L.) Beauv. ([3]; dose 600 g a.i./hm^2): 20%; pre-emergence and post-emergence herbicidal activity against broad-leaf weeds and grass weeds [4]: good |
| CCCS(=O)(=O)OCC1(C)CC(c2cc(-n3c(=O)cc(C(F)(F)F)n(C)c3=O)c(F)cc2Cl)=NO1 (stereo not drawn) [Compound 90] | 98 | 100 | 100 | 5 | 30 | 80 | 15 | 35 | 40 | 0 | 10 | 25 | 100 | 100 | 100 | 0 | 10 | 30 | 25 | 60 | Growth inhibition rate, Post-emergence treatment, Setaria glauca (L.) Beauv. ([3]; dose 600 g a.i./hm^2): 80%; Growth inhibition rate, Pre-emergence treatment, Setaria glauca (L.) Beauv. ([3]; dose 37.5 g a.i./hm^2): 5%; Growth inhibition rate, Pre-emergence treatment, Setaria glauca (L.) Beauv. ([3]; dose 150 g a.i./hm^2): 20%; Growth inhibition rate, Pre-emergence treatment, Setaria glauca (L.) Beauv. ([3]; dose 600 g a.i./hm^2): 50%; pre-emergence and post-emergence herbicidal activity against broad-leaf weeds and grass weeds [4]: good |
| CSCCC(=O)OCC1(C)CC(c2cc(-n3c(=O)cc(C(F)(F)F)n(C)c3=O)c(F)cc2Cl)=NO1 (stereo not drawn) [Compound 54] | 90 | 100 | 100 | 0 | 20 | 60 | 10 | 20 | 75 | 0 | 15 | 80 | 100 | 100 | 100 | 0 | 35 | 90 | 35 | 70 | Growth inhibition rate, Post-emergence treatment, Setaria glauca (L.) Beauv. ([3]; dose 600 g a.i./hm^2): 98%; Growth inhibition rate, Pre-emergence treatment, Setaria glauca (L.) Beauv. ([3]; dose 37.5 g a.i./hm^2): 0%; Growth inhibition rate, Pre-emergence treatment, Setaria glauca (L.) Beauv. ([3]; dose 150 g a.i./hm^2): 20%; Growth inhibition rate, Pre-emergence treatment, Setaria glauca (L.) Beauv. ([3]; dose 600 g a.i./hm^2): 60%; pre-emergence and post-emergence herbicidal activity against broad-leaf weeds and grass weeds [4]: good |
